Active and inactive are the calls of the source. No cut-off for these calls is given here.
Organism: Homo sapiens
Experiment: Binding affinity to arylsulfatase assessed as fluorescence quenching at 10 uM at pH 7.5 after 1.5 hrs by fluorescence spectrophotometry

Activity: inactive
Structure (SMILES): CN(C)c1cccc2c(S(=O)(=O)NCC(O)c3ccc(OS(=O)(=O)O)cc3)cccc12 (stereo unspecified)

— ChEMBL document CHEMBL2057079, “Activity-based fluorescent probes for monitoring sulfatase activity” (Bioorg Med Chem Lett, 2012)
